The target of this test is CDK4 (Homo sapiens, UniProt P11802+Q16531). The test is described as follows: CDK4 percentage degradation in Calu-1 cells (Table 6). Type of test: cell-based. Also noted: Cells that express cyclin D1-3 and CDK4/6 proteins were treated with heterobifunctional compounds; endogenous in cells; host or cells: Calu-1. Particulars: 16 hours; for inhibition at 0.04 µM: 40 nM; for inhibition at 0.2 µM: 200 nM. The protocol:
Calu-(cells were treated with heterobifunctional compounds at 40 nM or 200 nM for 16 hours A: protein percentage degradation […]; B: protein percentage degradation <80%, and ≥50%; C: protein percentage degradation <50%, and ≥30%; D; protein percentage degradation […]; -, data not available.
Calu-1, T47D, MCF7, HCC1428 and other cells were cultured at 37° C. with 5% CO2 in RPMI 1640 or DMEM medium supplemented with 10% fetal bovine serum. Cells were authenticated using the short tandem repeat (STR) assays. Mycoplasma test results were negative. For palbo-resistant cell model, T47D cells were cultured long-term to resistance in the presence of 1 μM Palbociclib. Cells were deemed resistant when growing in the presence of Palbo at the same rate as parental cells.
Cultured cells were washed with cold PBS once and lysed in cold RIPA buffer supplemented with protease inhibitors and phosphatase inhibitors (Beyotime Biotechnology). The solutions were then incubated at 4 ? for 30 min with gentle agitation to fully lysed cells. Cell lysates were centrifuged at 13,000 rpm for 10 min at 4 ? and pellets were discarded. Total protein concentrations in the lysates were determined following BCA assays (Beyotime Biotechnology). Cell lysates were mixed with Laemmli loading buffer and heated at 99° C. for 5 min. Proteins were resolved on SDS-PAGE and visualized using Western ECL Substrate kits on a ChemiDoc MP Imaging system (Bio-Rad). Protein bands were quantitated using the Image Lab software provided by Bio-Rad.

The structures appear in SMILES notation. Some results are limits rather than exact numbers.

Chain of CDK4 (P11802 2-303 limits assumed): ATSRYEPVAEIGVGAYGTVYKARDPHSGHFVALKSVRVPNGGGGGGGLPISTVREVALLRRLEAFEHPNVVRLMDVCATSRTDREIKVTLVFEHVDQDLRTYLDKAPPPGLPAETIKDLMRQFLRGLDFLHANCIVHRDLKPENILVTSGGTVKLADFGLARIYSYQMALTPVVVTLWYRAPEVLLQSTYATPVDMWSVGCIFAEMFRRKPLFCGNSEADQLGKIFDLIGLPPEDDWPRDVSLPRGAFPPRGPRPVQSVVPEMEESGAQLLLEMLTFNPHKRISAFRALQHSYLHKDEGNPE
Chain of CDK4 (P24385 whole entry partner): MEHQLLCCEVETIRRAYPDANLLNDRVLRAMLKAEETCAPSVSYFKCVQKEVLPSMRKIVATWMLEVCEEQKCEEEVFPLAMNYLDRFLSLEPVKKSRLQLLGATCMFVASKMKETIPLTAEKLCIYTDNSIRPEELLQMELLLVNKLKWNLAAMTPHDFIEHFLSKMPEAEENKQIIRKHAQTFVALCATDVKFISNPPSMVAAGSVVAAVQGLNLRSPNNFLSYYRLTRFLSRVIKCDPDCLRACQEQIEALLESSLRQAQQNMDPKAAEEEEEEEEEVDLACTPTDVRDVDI
Chain of CDK4 (Q16531 2-1140 limits assumed): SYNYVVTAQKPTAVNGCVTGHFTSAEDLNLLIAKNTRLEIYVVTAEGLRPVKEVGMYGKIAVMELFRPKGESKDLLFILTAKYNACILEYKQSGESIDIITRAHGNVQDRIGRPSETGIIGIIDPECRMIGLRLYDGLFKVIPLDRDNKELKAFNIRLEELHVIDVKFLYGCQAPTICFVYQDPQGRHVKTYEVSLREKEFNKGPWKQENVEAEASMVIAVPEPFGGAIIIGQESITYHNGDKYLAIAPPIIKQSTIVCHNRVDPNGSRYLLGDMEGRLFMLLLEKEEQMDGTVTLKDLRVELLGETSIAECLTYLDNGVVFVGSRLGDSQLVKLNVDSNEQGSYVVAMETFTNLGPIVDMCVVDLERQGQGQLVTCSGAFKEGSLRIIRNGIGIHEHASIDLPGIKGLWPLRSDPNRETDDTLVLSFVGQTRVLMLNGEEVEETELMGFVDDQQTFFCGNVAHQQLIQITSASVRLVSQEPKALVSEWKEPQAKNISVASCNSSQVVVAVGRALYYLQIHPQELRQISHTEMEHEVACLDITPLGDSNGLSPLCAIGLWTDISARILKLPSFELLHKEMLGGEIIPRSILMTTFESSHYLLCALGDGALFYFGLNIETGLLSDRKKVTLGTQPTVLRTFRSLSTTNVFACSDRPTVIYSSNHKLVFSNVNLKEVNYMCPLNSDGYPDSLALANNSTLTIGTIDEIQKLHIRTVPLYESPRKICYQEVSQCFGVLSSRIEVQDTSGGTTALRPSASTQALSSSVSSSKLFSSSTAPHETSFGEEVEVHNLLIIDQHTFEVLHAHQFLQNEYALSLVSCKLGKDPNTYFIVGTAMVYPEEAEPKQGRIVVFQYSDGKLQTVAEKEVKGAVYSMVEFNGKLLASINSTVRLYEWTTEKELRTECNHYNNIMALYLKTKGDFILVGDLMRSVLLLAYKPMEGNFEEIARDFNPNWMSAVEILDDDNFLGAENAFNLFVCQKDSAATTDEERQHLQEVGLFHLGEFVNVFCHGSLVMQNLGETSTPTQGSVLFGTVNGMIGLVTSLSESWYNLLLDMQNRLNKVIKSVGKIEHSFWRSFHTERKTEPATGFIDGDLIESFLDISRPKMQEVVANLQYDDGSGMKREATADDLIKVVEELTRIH

Molecule `CC(=O)c1c(C)c2cnc(Nc3ccc(N4CCN(CC(=O)NCCCNc5nc(C)ccc5C(=O)Nc5nc(C)c(C)s5)CC4)cn3)nc2n(C2CCCC2)c1=O` [CPD-1, 2-((3-(2-(4-(6-((6-Acetyl-8-cyclopentyl-5-methyl-7-oxo-7,8-dihydropyrido[2,3-d]pyrimidin-2-yl)amino)pyridin-3-yl)piperazin-1-yl)acetamido)propyl)amino)-N-(4,5-dimethylthiazol-2-yl)-6-methylnicotinamide] yielded an inhibition at 0.04 µM below 30% and an inhibition at 0.2 µM of 30 to 50%. `CNc1ccc(C(=O)Nc2ccc(N(C)C)nn2)c(NC2CC(CNC(=O)N3CCN(c4ccc(Nc5ncc6c(C)c(C(C)=O)c(=O)n(C7CCCC7)c6n5)nc4)CC3)C2)n1` (centres unmarked) [CPD-166, 4-(6-((6-acetyl-8-cyclopentyl-5-methyl-7-oxo-7,8-dihydropyrido[2,3-d]pyrimidin-2-yl)amino)pyridin-3-yl)-N-((3-((3-((6-(dimethylamino)pyridazin-3-yl)carbamoyl)-6-(methylamino)pyridin-2-yl)amino)cyclobutyl)methyl)piperazine-1-carboxamide] yielded an inhibition at 0.04 µM of 50 to 80% and an inhibition at 0.2 µM of 50 to 80%. The molecule `CNc1ccc(C(=O)Nc2cc(C(C)C)on2)c(NC2CC3(CC(NC(=O)CN4CCN(c5ccc(Nc6ncc7c(C)c(C(C)=O)c(=O)n(C8CCCC8)c7n6)nc5)CC4)C3)C2)n1` (centres unmarked) [CPD-227, 2-((6-(2-(4-(6-((6-acetyl-8-cyclopentyl-5-methyl-7-oxo-7,8-dihydropyrido[2,3-d]pyrimidin-2-yl)amino)pyridin-3-yl)piperazin-1-yl)acetamido)spiro[3.3]heptan-2-yl)amino)-N-(5-isopropylisoxazol-3-yl)-6-(methylamino)nicotinamide] returned an inhibition at 0.04 µM below 30% and an inhibition at 0.2 µM below 30%.

The molecule `[2H]C([2H])([2H])Nc1ccc(C(=O)Nc2ccc(F)c(C3CC3)n2)c(NC2CC3(CC(NC(=O)CN4CCN(c5ccc(Nc6ncc7c(C)c(C(C)=O)c(=O)n(C8CCCC8)c7n6)nc5)CC4)C3)C2)n1` (centres unmarked) [CPD-239, 2-((6-(2-(4-(6-((6-acetyl-8-cyclopentyl-5-methyl-7-oxo-7,8-dihydropyrido[2,3-d]pyrimidin-2-yl)amino)pyridin-3-yl)piperazin-1-yl)acetamido)spiro[3.3]heptan-2-yl)amino)-N-(6-cyclopropyl-5-fluoropyridin-2-yl)-6-((methyl-da)amino)nicotinamide] gave an inhibition at 0.04 µM of 30 to 50% and an inhibition at 0.2 µM of 50 to 80%. The molecule `CC(=O)c1c(C)c2cnc(Nc3ccc(N4CCN(CC(=O)NCCCCCCCNc5nc(-c6ccc(C#N)nc6)ccc5C(=O)Nc5nc(C)c(C)s5)CC4)cn3)nc2n(C2CCCC2)c1=O` [CPD-142] returned an inhibition at 0.04 µM below 30%.

Molecule `CNc1ccc(C(=O)Nc2cn(C(C)C)c(C)n2)c(NC2CC3(CC(NC(=O)CN4CCN(c5ccc(Nc6ncc7c(C)c(C(C)=O)c(=O)n(C8CCCC8)c7n6)nc5)CC4)C3)C2)n1` (centres unmarked) [CPD-238, 2-((6-(2-(4-(6-((6-acetyl-8-cyclopentyl-5-methyl-7-oxo-7,8-dihydropyrido[2,3-d]pyrimidin-2-yl)amino)pyridin-3-yl)piperazin-1-yl)acetamido)spiro[3.3]heptan-2-yl)amino)-N-(1-isopropyl-2-methyl-1H-imidazol-4-yl)-6-(methylamino)nicotinamide] displayed an inhibition at 0.04 µM below 30% and an inhibition at 0.2 µM below 30%.

As to `CC(=O)c1c(C)c2cnc(Nc3ccc(N4CCN(CC(=O)NC5CC6(C5)CC(Nc5nc(C(C)C)ccc5C(=O)Nc5cccc(C7CC7)n5)C6)CC4)cn3)nc2n(C2CCCC2)c1=O` (centres unmarked) [CPD-119, 2-((6-(2-(4-(6-((6-Acetyl-8-cyclopentyl-5-methyl-7-oxo-7,8-dihydropyrido[2,3-d]pyrimidin-2-yl)amino)pyridin-3-yl)piperazin-1-yl)acetamido)spiro[3.3]heptan-2-yl)amino)-N-(6-cyclopropylpyridin-2-yl)-6-isopropylnicotinamide], the inhibition at 0.04 µM is below 30% and the inhibition at 0.2 µM was 30 to 50%. On the same counts, the results for `CNc1ccc(C(=O)Nc2cc(C)on2)c(NC2CC3(CC(NC(=O)CN4CCN(c5ccc(Nc6ncc7c(C)c(C(C)=O)c(=O)n(C8CCCC8)c7n6)nc5)CC4)C3)C2)n1` (centres unmarked) [CPD-160, 2-((6-(2-(4-(6-((6-acetyl-8-cyclopentyl-5-methyl-7-oxo-7,8-dihydropyrido[2,3-d]pyrimidin-2-yl)amino)pyridin-3-yl)piperazin-1-yl)acetamido)spiro[3.3]heptan-2-yl)amino)-6-(methylamino)-N-(5-methylisoxazol-3-yl)nicotinamide] are 50 to 80% and above 80%. For `CC(=O)c1c(C)c2cnc(Nc3ccc(N4CCN(CC(=O)NC5CC6(C5)CC(Nc5nc(C(F)(F)F)ccc5C(=O)Nc5cccc(C7CC7)n5)C6)CC4)cn3)nc2n(C2CCCC2)c1=O` (centres unmarked) [CPD-121, 2-((6-(2-(4-(6-((6-Acetyl-8-cyclopentyl-5-methyl-7-oxo-7,8-dihydropyrido[2,3-d]pyrimidin-2-yl)amino)pyridin-3-yl)piperazin-1-yl)acetamido)spiro[3.3]heptan-2-yl)amino)-N-(6-cyclopropylpyridin-2-yl)-6-(trifluoromethyl)nicotinamide], in that order: below 30% and 30 to 50%.

As for `CNc1ccc(C(=O)Nc2cccc(C(F)(F)F)n2)c(NC2CC3(CC(NC(=O)CN4CCN(c5ccc(Nc6ncc7c(C)c(C(C)=O)c(=O)n(C8CCCC8)c7n6)nc5)CC4)C3)C2)n1` (centres unmarked) [CPD-91, 2-((6-(2-(4-(6-((6-Acetyl-8-cyclopentyl-5-methyl-7-oxo-7,8-dihydropyrido[2,3-d]pyrimidin-2-yl)amino)pyridin-3-yl)piperazin-1-yl)acetamido)spiro[3.3]heptan-2-yl)amino)-6-(methylamino)-N-(6-(trifluoromethyl)pyridin-2-yl)nicotinamide], the inhibition at 0.04 µM was below 30% and the inhibition at 0.2 µM lay in the range of 30 to 50%.

In turn, `CNc1ccc(C(=O)Nc2cccc(C3CC3)n2)c(NC2CC3(C2)CN(C(=O)C(C)(C)N2CCN(c4ccc(Nc5ncc6c(C)c(C(C)=O)c(=O)n(C7CCCC7)c6n5)nc4)CC2)C3)n1` [CPD-175, 2-((2-(2-(4-(6-((6-acetyl-8-cyclopentyl-5-methyl-7-oxo-7,8-dihydropyrido[2,3-d]pyrimidin-2-yl)amino)pyridin-3-yl)piperazin-1-yl)-2-methylpropanoyl)-2-azaspiro[3.3]heptan-6-yl)amino)-N-(6-cyclopropylpyridin-2-yl)-6-(methylamino)nicotinamide] registered an inhibition at 0.04 µM below 30% and an inhibition at 0.2 µM of 50 to 80%.

`CNc1ccc(C(=O)Nc2ccc(N(C)C)nn2)c(NCCCCC(=O)NCCN2CCN(c3ccc(Nc4ncc5c(C)c(C(C)=O)c(=O)n(C6CCCC6)c5n4)nc3)CC2)n1` [CPD-36, 2-((5-((2-(4-(6-((6-Acetyl-8-cyclopentyl-5-methyl-7-oxo-7,8-dihydropyrido[2,3-d]pyrimidin-2-yl)amino)pyridin-3-yl)piperazin-1-yl)ethyl)amino)-5-oxopentyl)amino)-N-(6-(dimethylamino)pyridazin-3-yl)-6-(methylamino)nicotinamide] gave an inhibition at 0.04 µM of 30 to 50% and an inhibition at 0.2 µM of 50 to 80%. With `CC(=O)c1c(C)c2cnc(Nc3ccc(N4CCN(CC(=O)NCC5CC(Nc6nc(C(C)C)ccc6C(=O)Nc6cc(C)n(C)n6)C5)CC4)cn3)nc2n(C2CCCC2)c1=O` (centres unmarked) [CPD-212, 2-((3-((2-(4-(6-((6-acetyl-8-cyclopentyl-5-methyl-7-oxo-7,8-dihydropyrido[2,3-d]pyrimidin-2-yl)amino)pyridin-3-yl)piperazin-1-yl)acetamido)methyl)cyclobutyl)amino)-N-(1,5-dimethyl-1H-pyrazol-3-yl)-6-isopropylnicotinamide], the inhibition at 0.04 µM was 30 to 50% and the inhibition at 0.2 µM is 50 to 80%. For `CNc1ccc(C(=O)Nc2ccc(N(C)C)nn2)c(NC2CC3(CC(CC(=O)N4CCN(c5ccc(Nc6ncc7c(C)c(C(C)=O)c(=O)n(C8CCCC8)c7n6)nc5)CC4)C3)C2)n1` (centres unmarked) [CPD-147, 2-((6-(2-(4-(6-((6-acetyl-8-cyclopentyl-5-methyl-7-oxo-7,8-dihydropyrido[2,3-d]pyrimidin-2-yl)amino)pyridin-3-yl)piperazin-1-yl)-2-oxoethyl)spiro[3.3]heptan-2-yl)amino)-N-(6-(dimethylamino)pyridazin-3-yl)-6-(methylamino)nicotinamide], in that order: 30 to 50% and 50 to 80%. On the same counts, the results for `CNc1ccc(C(=O)Nc2ccc(C)nn2)c(NCCCCCNC(=O)CN2CCN(c3ccc(Nc4ncc5c(C)c(C(C)=O)c(=O)n(C6CCCC6)c5n4)nc3)CC2)n1` [CPD-105, 2-((5-(2-(4-(6-((6-Acetyl-8-cyclopentyl-5-methyl-7-oxo-7,8-dihydropyrido[2,3-d]pyrimidin-2-yl)amino)pyridin-3-yl)piperazin-1-yl)acetamido)pentyl)amino)-6-(methylamino)-N-(6-methylpyridazin-3-yl)nicotinamide] are below 30% and 50 to 80%.

By inhibition is commonly meant how much of the control response was suppressed. A high value points to a response far below the control.

For the origin of these results see patent publication US20260297081A1, “COMPOUNDS AND METHODS OF TREATING CANCERS” (Cullgen Inc., priority 2023, published 2026).
